Results from US20020182635A1, “Methods of screening for LTRPC2 modulators” (priority 2000, published 2002).
Where two headings read alike, the source gives them in different places.

Legend:
NUDT9 = molecular target: T1, NUDT9 (Homo sapiens, UniProt Q9BW91); experiment: Nudix-type hydrolase activity towards a panel of substrates, NUDT9; type: biochemical; details: purified bacterially expressed NUDT9
T1 construct: made in house; host or cells: E. coli BL21 (DE3), pET-24d
T1 sequence (Q9BW91 47-350): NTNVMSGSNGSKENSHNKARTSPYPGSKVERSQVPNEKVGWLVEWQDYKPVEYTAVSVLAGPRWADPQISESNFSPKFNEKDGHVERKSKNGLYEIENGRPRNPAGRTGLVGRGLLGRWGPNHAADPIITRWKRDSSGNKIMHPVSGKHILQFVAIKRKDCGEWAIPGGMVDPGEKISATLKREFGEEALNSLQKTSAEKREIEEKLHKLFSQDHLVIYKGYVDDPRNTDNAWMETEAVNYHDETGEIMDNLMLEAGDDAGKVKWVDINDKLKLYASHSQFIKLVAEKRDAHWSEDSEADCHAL
Experimental: (§1) FIG. 2(B) is a characterization of the enzymatic activity of NUDT9 and NUDT9-H. Purified preparations of NUDT9 and NUDT9-H were screened for Nudix-type activity towards a panel of substrates as described in the methods section. Km and Vmax were calculated by non-linear regression analysis of Lineweaver-Burke plots.
(§2) BL21 (DE3) cells containing the respective expression plasmids were grown at 37° C. in LB broth on a shaker to an A600 of about 0.6 and induced by the addition of isopropyl-b-D-thiogalactopyranoside to a concentration of 1 mM. The cells were grown for an additional 4 h, harvested, washed by suspension in isotonic saline, centrifuged in pre-weighed centrifuge tubes, and the packed cells were stored at −80 ° C. […] In the case of NUDT9, enzyme was extracted in the freeze-thaw fraction and ammonium sulfate was added to 35% final concentration. The precipitate was discarded after centrifugation and ammonium sulfate was added to the supernatant to a final concentration of 50%. The precipitate was collected by centrifugation, dissolved, then chromatographed on a gel filtration column (Sephadex G-100). The active fractions containing the majority of the enzyme were pooled, concentrated by centrifugation in an Amicon Centriprep30, dialyzed, and chromatographed on DEAE-sepharose. The purified enzyme was concentrated from the pooled active fractions again using an Amicon Centriprep30. For the NUDT9 homology region of LTRPC2, the protein was extracted in the freeze-thaw fraction and ammonium sulfate was added to 35% final concentration and centrifuged. The precipitate was dissolved, dialyzed, and chromatographed on DEAE-sepharose. The purified enzyme was concentrated from the pooled active fractions by precipitation with 70% ammonium sulfate.
(§3) Enzyme Assay: Enzyme velocities were quantified by measuring the conversion of a phosphatase-insensitive substrate, ADPR, to the phosphatase-sensitive products, AMP and ribose-5-phosphate. The liberated inorganic orthophosphate was measured by the procedure of Ames and DubinENRfu^27. The standard incubation mixture ([…]) contained 50 mM Tris-Cl, pH 9.0, 16 mM MgCl2, 2 mM ADPR, 0.2-1 milliunitsof enzyme and 4 units of alkaline intestinal phosphatase. After 30 min at 37° C., the reaction was terminated by the addition of EDTA and inorganic orthophosphate was measured. A unit of enzyme hydrolyzes […] of substrate per min under these conditions. Note that 2 moles of phosphate are liberated per mole of ADPR hydrolyzed. Product determination: The standard assay mixture (minus alkaline intestinal phosphatase) was incubated for 30 min at 37° C. and terminated by the addition of […] of a mixture of four parts of Norit (20% packed volume) and one part of 7% HClO4 to remove adenine-containing nucleotides. After centrifugation, […] was adjusted to an alkaline pH and incubated for an additional 30 min at 37° C. with alkaline intestinal phosphatase to hydrolyze the ribose-5-phosphate formed.

LTRPC2 NUDT9-H = molecular target: T2, LTRPC2 NUDT9-H (Homo sapiens, UniProt O94759); experiment: Nudix-type hydrolase activity towards a panel of substrates, NUDT9-H region of LTRPC2; type: biochemical; details: purified bacterially expressed NUDT9-H of LTRPC2
T2 construct: an artificial start codon, amino acids 1197-1503, a stop codon; artificial initiating Met (artificial start codon) (N); made in house; host or cells: E. coli BL21 (DE3), pET-24d
T2 sequence (O94759 1197-1503): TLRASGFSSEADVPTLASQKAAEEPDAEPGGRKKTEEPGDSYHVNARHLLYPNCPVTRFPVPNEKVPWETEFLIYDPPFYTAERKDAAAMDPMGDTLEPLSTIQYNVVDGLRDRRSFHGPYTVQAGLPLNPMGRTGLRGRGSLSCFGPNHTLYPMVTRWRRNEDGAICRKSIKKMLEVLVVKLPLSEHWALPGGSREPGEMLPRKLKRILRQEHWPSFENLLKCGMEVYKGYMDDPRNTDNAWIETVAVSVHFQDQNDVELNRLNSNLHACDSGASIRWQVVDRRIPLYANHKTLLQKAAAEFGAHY
Experimental: as §1, §2, §3

LTRPC2 = molecular target: T3, LTRPC2 (Homo sapiens, UniProt O94759); experiment: ADPR-dependent gating of LTRPC2, whole-cell patch-clamp in tetracycline-induced HEK-293 cells expressing FLAG-LTRPC2; type: cell-based
T3 construct: beginning at amino acid 3 and extending to amino acid 1503; FLAG tag within the printed N-terminal leader […]; expressed in transfected cells
T3 sequence (O94759 3-1503): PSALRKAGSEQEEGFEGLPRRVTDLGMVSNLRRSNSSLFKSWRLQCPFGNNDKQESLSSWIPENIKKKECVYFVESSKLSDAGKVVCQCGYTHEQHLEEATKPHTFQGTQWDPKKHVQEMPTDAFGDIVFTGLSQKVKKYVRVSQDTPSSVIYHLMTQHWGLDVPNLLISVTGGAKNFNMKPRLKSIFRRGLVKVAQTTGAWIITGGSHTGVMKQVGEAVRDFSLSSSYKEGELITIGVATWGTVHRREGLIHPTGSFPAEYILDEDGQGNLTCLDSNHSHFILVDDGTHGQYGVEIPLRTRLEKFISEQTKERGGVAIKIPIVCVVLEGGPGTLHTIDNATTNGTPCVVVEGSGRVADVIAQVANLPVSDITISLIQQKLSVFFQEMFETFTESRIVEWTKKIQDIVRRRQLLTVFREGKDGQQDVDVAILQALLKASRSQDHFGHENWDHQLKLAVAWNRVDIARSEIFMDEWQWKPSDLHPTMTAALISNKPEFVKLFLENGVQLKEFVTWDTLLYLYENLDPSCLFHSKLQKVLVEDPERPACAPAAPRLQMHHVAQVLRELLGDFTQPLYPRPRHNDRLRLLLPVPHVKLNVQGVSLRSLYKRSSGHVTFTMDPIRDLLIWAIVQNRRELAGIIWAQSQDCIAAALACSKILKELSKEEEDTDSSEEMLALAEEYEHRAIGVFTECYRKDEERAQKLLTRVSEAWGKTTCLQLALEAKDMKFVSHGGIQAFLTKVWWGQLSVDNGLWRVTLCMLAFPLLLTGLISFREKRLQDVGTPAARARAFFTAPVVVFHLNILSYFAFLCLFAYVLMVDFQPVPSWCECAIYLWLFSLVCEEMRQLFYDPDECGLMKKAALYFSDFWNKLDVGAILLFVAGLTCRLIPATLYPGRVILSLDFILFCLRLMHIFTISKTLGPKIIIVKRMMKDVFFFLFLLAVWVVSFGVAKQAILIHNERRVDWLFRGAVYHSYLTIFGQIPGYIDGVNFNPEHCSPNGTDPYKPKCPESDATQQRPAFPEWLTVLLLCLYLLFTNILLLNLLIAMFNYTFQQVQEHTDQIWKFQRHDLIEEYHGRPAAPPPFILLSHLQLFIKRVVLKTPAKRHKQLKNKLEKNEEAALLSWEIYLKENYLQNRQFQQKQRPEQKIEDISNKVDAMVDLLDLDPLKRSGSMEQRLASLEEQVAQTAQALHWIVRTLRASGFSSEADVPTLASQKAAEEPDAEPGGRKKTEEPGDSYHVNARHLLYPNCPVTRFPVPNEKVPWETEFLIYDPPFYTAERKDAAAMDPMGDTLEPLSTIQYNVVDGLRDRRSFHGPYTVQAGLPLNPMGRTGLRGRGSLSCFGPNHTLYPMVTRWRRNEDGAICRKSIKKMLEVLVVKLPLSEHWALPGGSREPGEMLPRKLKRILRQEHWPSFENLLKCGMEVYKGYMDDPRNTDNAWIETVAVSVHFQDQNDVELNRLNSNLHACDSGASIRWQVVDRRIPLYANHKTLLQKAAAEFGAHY
Experimental: 10^6 cells were analyzed for expression of a FLAG-reactive protein by anti-FLAG immunoprecipitation/anti-FLAG immunoblotting. […] The open symbols represent superimposed analyses of responses obtained from (i) wild-type HEK-293 cells (WT) perfused with standard internal solution in the absence of ADPR (n=3±sem); (ii) uninduced cells perfused with standard internal solution in the absence of ADPR (n=5±sem); (iii) uninduced HEK-293 cells perfused with standard solution containing 1 mM ADPR (n=3±sem); (iv) tet-induced HEK-293 cells perfused with standard internal solution without ADPR present (n=4±sem). […] The filled symbols indicate the time points at which individual high-resolution data traces were extracted for presentation as I/V curves in FIG. 3(F). […] Ramp currents were recorded in response of a standard voltage ramp stimulus (−100 mV to +100 mV in 50 ms).
FIG. 4 depicts the characterization of ADPR-dependent currents in LTRPC2-expressing in HEK-293 cells. […] HEK-293 cells expressing FLAG-LTRPC2 were perfused with defined ADPR concentrations ranging from […] to 1 mM, and currents were measured at −80 mV as in FIG. 3(D). The maximum current amplitude of individual cells was derived by analyzing the time course of current development (see e.g., FIGS. 3(C) and 3(D)) and fitting a Boltzmann curve to the rising phase of the developing cationic conductance. Peak current amplitudes were averaged and plotted versus ADPR concentration (n=5 to 12±sem). […] FIG. 4(B) depicts the kinetics of ADPR-dependent gating of LTRPC2. The temporal development of ADPR-gated currents was assessed as described in FIG. 4(A) by fitting a Boltzmann curve to the rising phase of the developing cationic conductance. The mid-point values of this analysis correspond to the time of half-maximal current activation, and are plotted as a function of ADPR concentration. […] HEK-293 cells expressing FLAG-LTRPC2 were perfused with 100 μM ADPR. 80 seconds into the experiment, and indicated by the bar, isotonic CaCl2 solution (120 mM CaCl2, 300 mOsm) was applied externally for 20 seconds.
Wild type and tetracycline-inducible HEK-293 FLAG-LTRPC2 expressing cells were cultured at 37° C./5% CO2 in DMEM supplemented with 10% FBS and 2 mM glutamine. The medium was supplemented with blasticidin (5 μg/ml; Invitrogen) and zeocin (0.4 mg/ml; Invitrogen). Cells were resuspended in media containing 1 μg/ml tetracycline (Invitrogen) 24 hours before experiments.
For patch-clamp experiments, cells grown on coverslips were transferred to the recording chamber and kept in a standard modified Ringer's solution of the following composition (in mM): NaCl 145, KCl 2.8, CaCl2 1, MgCl2 2, glucose 10, Hepes-NaOH 10, pH 7.2. Intracellular pipette-filling solutions contained (in mM): Cs-glutamate 145, NaCl 8, MgCl2 1, Cs-BAPTA 10, pH 7.2 adjusted with CsOH.

[1] = test system: ADPR-dependent current (IADPR) in human U937 monocytes; experiment: Endogenous ADPR-dependent current (IADPR), whole-cell patch-clamp in U937 monocytes; type: cell-based; details: U937 cells; for EC50: read-out: apparent EC50 for IADPR
Experimental: FIG. 5 depicts the characterization of endogenous ADPR-dependent current(IADPR) in human U937 monocytes. […] In the right lane, the blot identifies LTRPC2 mRNA in native U937 cells. […] FIG. 5(B) depicts the temporal development of inward currents in U937 cells at −80 mV activated by different intracellular concentrations of ADPR in the presence of 10 mM BAPTA (n=4-11 each). FIG. 5(C) depicts the temporal development of inward currents in U937 cells at −80 mV activated by different intracellular concentrations of ADPR while [Ca^2+]i was buffered to 100 nM (n=5-7 each). FIG. 5(D) depicts the temporal development of inward currents in U937 cells at −80 mV activated by different intracellular concentrations of ADPR in the absence of exogenous buffers (n=5-9 each). […] Representative current record in response to a voltage ramp ranging from −100 to +100 mV over 50 ms. The record was obtained 100 s after whole-cell establishment from a cell perfused with 100 μM ADPR under unbuffered conditions.
For patch-clamp experiments, cells grown on coverslips were transferred to the recording chamber and kept in a standard modified Ringer's solution of the following composition (in mM): NaCl 145, KCl 2.8, CaCl2 1, MgCl2 2, glucose 10, Hepes-NaOH 10, pH 7.2. Intracellular pipette-filling solutions contained (in mM): Cs-glutamate 145, NaCl 8, MgCl2 1, Cs-BAPTA 10, pH 7.2 adjusted with CsOH. In some experiments, BAPTA was omitted from the pipette solution and 100 μM fura-2 was added for the purpose of fluorimetric monitoring of intracellular Ca^2+ concentration. […] The agonists were dissolved in the standard intracellular solution. Patch-clamp experiments were performed in the tight-seal whole-cell configuration at 21-25° C. High-resolution current recordings were acquired by a computer-based patch-clamp amplifier system (EPC-9, HEKA, Lambrecht, Germany). Patch pipettes had resistances between 2-4 MW after filling with the standard intracellular solution. Immediately following establishment of the 5 whole-cell configuration, voltage ramps of 50 ms duration spanning the voltage range of −100 to +100 mV were delivered from a holding potential of 0 mV at a rate of 0.5 Hz over a period of 200 to 400 seconds. All voltages were corrected for a liquid junction potential of 10 mV between external and internal solutions. Currents were filtered at 2.9 kHz and digitized at 100 μs intervals. Capacitive currents and series resistance were determined and corrected before each voltage ramp using the automatic capacitance compensation of the EPC-9. For analysis, the very first ramps prior to current activation were digitally filtered at 2 kHz, pooled and used for leak-subtraction of all subsequent current records. […]

SMILES: Nc1ncnc2c1ncn2[C@@H]1O[C@H](COP(=O)(O)OP(=O)(O)O[C@H]2O[C@H](CO)[C@@H](O)[C@H](O)[C@H]2O)[C@@H](O)[C@H]1O [ADP-lucose]
- hydrolysis as substrate by NUDT9 (NUDT9): not hydrolyzed
- hydrolysis as substrate by NUDT9-H (LTRPC2 NUDT9-H): not hydrolyzed

SMILES: Nc1ncnc2c1ncn2[C@@H]1O[C@H](COP(=O)(O)OP(=O)(O)OC[C@H]2OC(O)[C@H](O)[C@@H]2O)[C@@H](O)[C@H]1O (stereo partly drawn) [ADPR, Adenosine 5-diphospho (ADP)-ribose]
- Hill coefficient of dose-response curve (LTRPC2; HEK-293 cells expressing FLAG-LTRPC2, currents at −80 mV): 9
- EC50 (LTRPC2; HEK-293 cells expressing FLAG-LTRPC2, intracellular perfusion, peak currents at −80 mV, read-out: apparent EC50 of ADPR-dependent gating of LTRPC2): 90 µM
- cells that generated currents above control levels (LTRPC2; cells perfused with 60 μM ADPR or higher (n=38)): 91%
- intracellular concentration at which gating of the LTRPC2 channel begins (LTRPC2; intracellular ADPR): 60 to 100 µM
- intracellular concentration at which saturation occurs (LTRPC2; intracellular ADPR): ~300 µM
- membrane currents at −80 mV (LTRPC2; tet-induced HEK-293 cells expressing FLAG-LTRPC2 perfused with 100 μM ADPR): large inward currents
- Hill coefficient ([1]; [Ca2+]i buffered to 100 nM): 8
- EC50 ([1]; [Ca2+]i buffered to 100 nM): 130 µM
- Hill coefficient ([1]; unbuffered): 8
- EC50 ([1]; unbuffered (exogenous buffers omitted)): 40 µM

SMILES: Nc1nc2c(ncn2[C@@H]2O[C@H](COP(=O)(O)OP(=O)(O)O[C@H]3O[C@H](CO)[C@@H](O)[C@H](O)[C@@H]3O)[C@@H](O)[C@H]2O)c(=O)[nH]1 [GDP-mannose]
- hydrolysis as substrate by NUDT9 (NUDT9): not hydrolyzed
- hydrolysis as substrate by NUDT9-H (LTRPC2 NUDT9-H): not hydrolyzed

SMILES: NC(=O)C1=CN([C@@H]2O[C@H](COP(=O)(O)OP(=O)(O)OC[C@H]3O[C@@H](n4cnc5c(N)ncnc54)[C@H](O)[C@@H]3O)[C@@H](O)[C@H]2O)C=CC1 [NADH]
- hydrolysis as substrate by NUDT9 (NUDT9): not hydrolyzed
- hydrolysis as substrate by NUDT9-H (LTRPC2 NUDT9-H): not hydrolyzed

SMILES: NC(=O)c1ccc[n+]([C@@H]2O[C@H](COP(=O)([O-])OP(=O)(O)OC[C@H]3O[C@@H](n4cnc5c(N)ncnc54)[C@H](O)[C@@H]3O)[C@@H](O)[C@H]2O)c1 [NAD^+, nicotinamide adenine dinucleotide]
- hydrolysis as substrate by NUDT9 (NUDT9): not hydrolyzed
- hydrolysis as substrate by NUDT9-H (LTRPC2 NUDT9-H): not hydrolyzed

SMILES: Nc1ccn([C@H]2C[C@H](O)[C@@H](COP(=O)(O)OP(=O)(O)OP(=O)(O)O)O2)c(=O)n1 [deoxy-CTP]
- hydrolysis as substrate by NUDT9 (NUDT9): not hydrolyzed
- hydrolysis as substrate by NUDT9-H (LTRPC2 NUDT9-H): not hydrolyzed

SMILES: Nc1nc2c(ncn2[C@H]2C[C@H](O)[C@@H](COP(=O)(O)OP(=O)(O)OP(=O)(O)O)O2)c(=O)[nH]1 [deoxy-GTP]
- hydrolysis as substrate by NUDT9 (NUDT9): not hydrolyzed
- hydrolysis as substrate by NUDT9-H (LTRPC2 NUDT9-H): not hydrolyzed

SMILES: Cc1cn([C@H]2C[C@H](O)[C@@H](COP(=O)(O)OP(=O)(O)OP(=O)(O)O)O2)c(=O)[nH]c1=O [deoxy-TTP]
- hydrolysis as substrate by NUDT9 (NUDT9): not hydrolyzed
- hydrolysis as substrate by NUDT9-H (LTRPC2 NUDT9-H): not hydrolyzed
